{
  "source": "paper PMC9863266",
  "about": "“Preclinical Studies and Drug Combination of Low-Cost Molecules for Chagas Disease” (Pharmaceuticals, 2022)",
  "key": {"[1]": {"test_system": "CD1 and Balb/c mice", "assay": "Acute oral toxicity in mice (Up and Down test)", "type": "in vivo", "conditions": "14 days", "experimental": "(§1) After verifying, through the studies indicated above, the low in vitro and in vivo toxicity and the potent trypanosomicidal activity of these molecules and following the steps of preclinical drug development, the acute oral toxicity in vivo in mice was tested. For this study, the compounds were administered orally in the same microemulsion that was used in the pharmacological study on the acute model of Chagas disease. The initial number of animals is defined by the software AOT425 Stat and also depends on if there are LD50 of compounds with similar structures. Variable numbers of animals could be used if there is some toxicity observed during the first administrations. […]. In this case, one of the animals died 10 days post-administration. The LD50 calculated by the statistical program from these experiments was 2000 mg/kg b.w., the maximal dose being used for oral administration. As a result, compound 793 has low acute toxicity in these conditions. For compound 1019, a maximum dose of 2000 mg/kg b.w. was started orally in five mice until one of the ends of the trial criteria was met. […] Throughout the test, during the 14 days, the mice were evaluated by the Irwin test and their masses were recorded. […]"}, "[2]": {"assay": "Acute oral toxicity in mice (Up and Down test)", "type": "in vivo", "conditions": "CD1 and Balb/c, mouse, in vivo; oral, microemulsion", "experimental": "as §1"}, "[3]": {"target": "triosephosphate isomerase recombinant enzyme of T. cruzi (TcTIM)", "conditions": "cited from earlier work"}, "[4]": {"test_system": "zebrafish embryos", "experimental": "1-Phenyl-2-thiourea (0.003%) was added to system water to inhibit melanogenesis in embryos destined for microscopic imaging. The eggs were collected, and the unfertilized ones were discarded. […] At this stage, the membrane that protects the embryo (chorion) was manually removed. This was completed on a 1 % agarose plate and medium for embryos. Two 96-well plates with a curved bottom were prepared. […] One embryo was placed per […], and it was verified that it had not suffered any injury when it was transferred. After preparing the plates, the embryos were evaluated. For this, they were placed in a humid chamber to avoid the evaporation of the compounds and were incubated at 28 °C. At 24 h, the first observation was made and half of the medium in each well was replaced to ensure that the concentrations remained constant during the 96 h of exposure. To do this, 100 µL of medium was removed from each well and replaced with 100 µL of fresh medium. […] In addition, any other type of abnormality that may indicate teratogenicity was recorded. The same was performed every 24 h until 96 h of exposure where the test was considered finished. The embryos were sacrificed in 70% ethanol. […] The curve obtained was fitted to a sigmoid using the OriginLab 8.5 program."}, "[5]": {"test_system": "Leishmania spp (cutaneous) promastigotes", "set-up": "method as in earlier work", "conditions": "read-out: In vitro anti-Leishmania spp (cutaneous) activity (IC50); cited from earlier work"}, "[6]": {"assay": "Stability with microsomal and cytosolic fractions of rat hepatocytes", "type": "in vitro ADME", "experimental": "The qualitative analysis of the in vitro metabolization by the rat hepatocyte microsomal (MF) and cytosolic (CF) fractions of compounds 793, 1019, and 1018 was performed using chromatographic techniques (reverse phase high performance liquid chromatography and thin-layer chromatography). For this, the metabolization was monitored at different times (0, 30, 60 min and 4 h). In both MF and CF of hepatocytes treated with compounds 793 and 1019, it was observed that after one hour, more than 50% (t1/2 < 60 min) of the compounds were metabolized to more hydrophilic compounds. For these compounds, it was observed the appearance of new products of metabolization over time. […] Regarding the structure and metabolism, the heterocycles (thienyl vs. furyl) could be responsible for these different stabilities: the furyl ring would metabolize to an open cycle version, making this system more labile in front of the hepatic metabolization.\nFor the determination of the stability in the different fractions, cytosolic and microsomal, rat hepatocytes protein fractions were purchased by Sigma® and used according to the previously reported protocol. […] The final concentration of the molecules in the aqueous medium was […] and prepared from stock in DMSO of 40 mM. The solutions were homogenized and incubated at 37 °C for 10 min, 30 min, 1 h, 2 h, 3 h, and 4 h (by TLC). Incubation at 37 °C was performed in a reaction volume of 1 mL containing 2.5 µL of 30 mM magnesium chloride (MgCl2); 2.5 µL of 40 mM nicotinamide […] dinucleotide phosphate (NADP^+); 5 µL of 350 mM glucose 6-phosphate (Glu6P); 5 µL of glucose 6-phosphate dehydrogenase (Glu6PD) 50 U/mL, 5 µL of the stock of 40 mM compounds and the volume of the phosphate buffer (pH = 7) was defined so that cytosolic (CF) and microsomal (MF) fraction present a final protein concentration of 0.1 mg/mL. After that, the stability of compounds 793, 1018, and 1019 in the CF and MF of rat hepatocytes was evaluated by HPLC at different times: 0, 30, and 60 min. […]"}},
  "note": "Values joined by “and” are separate entries in the source; they are usually repeats but may differ in a detail not shown here. Equal values may be shown once.",
  "data": [
    {"smiles": "O=C(/C=C/C=C/c1ccco1)/C=C/C=C/c1ccco1", "note": "[Compound 793]", "values": [
      {"measurement": "Signs of acute toxicity (Irwin test, body mass)", "setting": "[1]", "value": "did not show signs of acute toxicity"},
      {"measurement": "LD50 at 14 days", "setting": "[2]", "value": 2000, "unit": "mg/kg"},
      {"measurement": "IC50", "setting": "[3]", "value": 3, "unit": "µM"},
      {"measurement": "Teratogenicity in zebrafish (LD50 ± SD)", "setting": "[4]; 96 h exposure", "value": "22 µM and 22 ± 5 µM"},
      {"measurement": "Selectivity: zebrafish LD50 versus IC50 in the parasite", "setting": "[4]; zebrafish, in vivo", "value": "four"},
      {"measurement": "IC50", "setting": "[5]", "value": 36, "unit": "µM"},
      {"measurement": "In vitro metabolic stability (qualitative)", "setting": "[6]; MF and CF of rat hepatocytes, up to 4 h", "value": "short half-life"},
      {"measurement": "Compound metabolized to more hydrophilic compounds", "setting": "[6]; after one hour, both MF and CF", "value": "more than 50%"},
      {"measurement": "half-life at 400 µM", "setting": "[6]; pH 7, both MF and CF of rat hepatocytes", "value": "< 1", "unit": "h"}
    ]}
  ]
}
